Measurements: article PMC9643853, “Synthesis and evaluation of 3-alkynyl-5-aryl-7-aza-indoles as broad-spectrum antiviral agents” (Frontiers in Chemistry, 2022)

Key:
VEEV (TC-83) = assay: microbe, parasite or virus in culture; type: cell-based; conditions: Venezuelan equine encephalitis virus, U-87 MG, 18 h, read-out: VEEV EC50
in vitro [1] = conditions: human
RSV-A [2] = assay: RSV-A cytopathic effect (CPE) reduction assay in HEp-2 cells, MTS read-out; type: cell-based, human respiratory syncytial virus, RSV-A strain Long
in vitro [3] = conditions: human; remark: listed apart in the source
AAK1 = AAK1 (Homo sapiens, UniProt Q2M2I8); assay: LanthaScreen Eu Kinase Binding Assay for AAK1
Chain of AAK1 (Q2M2I8 whole entry): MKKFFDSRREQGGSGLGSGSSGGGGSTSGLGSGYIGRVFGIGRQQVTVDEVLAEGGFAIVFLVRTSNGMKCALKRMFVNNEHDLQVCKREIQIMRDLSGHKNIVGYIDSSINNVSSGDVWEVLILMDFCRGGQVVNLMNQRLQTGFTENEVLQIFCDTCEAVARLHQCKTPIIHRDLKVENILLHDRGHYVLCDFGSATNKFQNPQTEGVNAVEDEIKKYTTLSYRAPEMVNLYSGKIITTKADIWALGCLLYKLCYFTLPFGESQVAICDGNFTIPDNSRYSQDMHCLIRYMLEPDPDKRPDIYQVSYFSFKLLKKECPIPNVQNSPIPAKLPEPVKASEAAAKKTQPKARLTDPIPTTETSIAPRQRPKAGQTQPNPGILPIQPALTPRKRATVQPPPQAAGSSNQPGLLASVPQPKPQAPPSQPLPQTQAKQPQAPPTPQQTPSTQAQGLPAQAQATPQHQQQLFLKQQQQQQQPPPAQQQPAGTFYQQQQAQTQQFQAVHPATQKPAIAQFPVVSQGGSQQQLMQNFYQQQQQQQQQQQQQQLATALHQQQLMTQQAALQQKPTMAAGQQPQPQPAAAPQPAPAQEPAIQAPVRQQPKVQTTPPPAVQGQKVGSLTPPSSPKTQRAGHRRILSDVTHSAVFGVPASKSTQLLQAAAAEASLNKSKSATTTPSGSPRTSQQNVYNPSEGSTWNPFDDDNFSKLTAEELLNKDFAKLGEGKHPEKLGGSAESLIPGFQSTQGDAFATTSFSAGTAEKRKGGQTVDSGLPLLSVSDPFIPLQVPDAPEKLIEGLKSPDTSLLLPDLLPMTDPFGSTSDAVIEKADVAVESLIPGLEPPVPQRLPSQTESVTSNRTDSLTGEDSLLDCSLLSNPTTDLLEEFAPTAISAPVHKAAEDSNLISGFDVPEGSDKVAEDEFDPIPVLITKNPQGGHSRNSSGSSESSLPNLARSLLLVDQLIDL

RSV-A [4] = assay: Anti-RSV-A activity in A549 cells, viral RNA in supernatant by RT-qPCR; type: cell-based, RSV-A strain Long; conditions: human respiratory syncytial virus, A549, 120 h, read-out: RSV-A EC50 (A549, viral RNA levels)
[5] = human respiratory syncytial virus, HEp-2, 96 h; read-out: RSV-A EC50

Compound	EC50 (VEEV (TC-83)) [µM]	CC50 (in vitro [1]) [µM]	EC50 (RSV-A [2]; [5]) [µM]	CC50 at 4 days (in vitro [3]) [µM]	AAK1 affinity (in words) (AAK1)	IC50 (AAK1) [µM]	EC50 (RSV-A [4]) [µM]	selectivity index (SI) (RSV-A [2]; CC50 HEp-2 / EC50 RSV-A)	EC50 (RSV-A [2]; human respiratory syncytial virus, HEp-2, 96 h, read-out: RSV-A EC50) [µM]	anti-RSV activity (in words) (RSV-A [2]; HEp-2 cells)	loss of activity against RSV-A relative to compound 4d (RSV-A [2]; HEp-2 cells) [fold]
COc1ccc(-c2cnc3[nH]cc(C#Cc4cccnc4)c3c2)cc1 [Compound 4a, 5-(4-Methoxyphenyl)-3-(pyridin-3-ylethynyl)-1H-pyrrolo[2,3-b]pyridine]	6.81 ± 1.87	> 10	0.048 ± 0.037	0.24 ± 0.23							
COc1cccc(-c2cnc3[nH]cc(C#Cc4cccnc4)c3c2)c1 [Compound 4b]	> 10	> 10	0.67 ± 0.43	6 ± 5.66							
COc1ccccc1-c1cnc2[nH]cc(C#Cc3cccnc3)c2c1 [Compound 4c]	5.34 ± 1.87	> 10	0.69 ± 0.32	6 ± 5.66							
COc1cc(OC)cc(-c2cnc3[nH]cc(C#Cc4cccnc4)c3c2)c1 [Compound 4d]	> 10	> 10		> 50	low nanomolar AAK1 affinity	0.0062	0.05	90	0.55 ± 0.41		
COc1cc(-c2cnc3[nH]cc(C#Cc4cccnc4)c3c2)cc(OC)c1OC [Compound 4e]	1.5 ± 0.17	> 10	0.71 ± 0.55	1.2 ± 1.13							
COCCOc1ccc(-c2cnc3[nH]cc(C#Cc4cccnc4)c3c2)cc1 [Compound 4f]	> 10	> 10	30 ± 28.3	> 50						completely devoid of anti-RSV activity	
COc1cc(-c2cnc3[nH]cc(C#Cc4cccnc4)c3c2)ccn1 [Compound 4g]	> 10	> 10	2.71 ± 1.01	> 50							
Clc1cccc(-c2cnc3[nH]cc(C#Cc4cccnc4)c3c2)c1 [Compound 4h]	> 10	> 10	2.89 ± 2.24	> 50							
Fc1ccc(-c2cnc3[nH]cc(C#Cc4cccnc4)c3c2)cc1 [Compound 4i]	9.05 ± 1.03	> 10	2.23 ± 1.32	> 50							
C(#Cc1c[nH]c2ncc(-c3ccoc3)cc12)c1cccnc1 [Compound 4j]	> 10	> 10	47.8 ± 3.07	> 50						completely devoid of anti-RSV activity	
C(#Cc1c[nH]c2ncc(-c3ccsc3)cc12)c1cccnc1 [Compound 4k]	> 10	> 10	4.83 ± 1.44	> 50							
COc1cc(OC)cc(-c2cnc3[nH]cc(C#Cc4ccccn4)c3c2)c1 [Compound 5a]	> 10	> 10	0.08	0.24 ± 0.23							
COc1cc(OC)cc(-c2cnc3[nH]cc(C#Cc4ccccc4)c3c2)c1 [Compound 5b]	> 10	> 10	1.59 ± 0.59	6 ± 4.35							
COc1cc(OC)cc(-c2cnc3[nH]cc(C#Cc4ccc(F)cc4)c3c2)c1 [Compound 5c]	6.27 ± 0.93	> 10	0.36 ± 0.064	1.66 ± 0.89							
COc1cc(OC)cc(-c2cnc3[nH]cc(C#Cc4cccc(Cl)c4)c3c2)c1 [Compound 5d]	6.13 ± 0.94	> 10	16.3	> 50							30
COc1cccc(C#Cc2c[nH]c3ncc(-c4cc(OC)cc(OC)c4)cc23)c1 [Compound 5e]	6.29 ± 2.71	> 10	2.75 ± 0.24	> 50							5
COc1cc(OC)cc(-c2cnc3[nH]cc(C#Cc4ccsc4)c3c2)c1 [Compound 5f]	4.3 ± 0.47	> 10	0.31 ± 0.13	1.84 ± 0.95							
COc1cc(OC)cc(-c2cnc3c(c2)c(C#Cc2cccnc2)cn3C)c1 [Compound 7a]	> 10	> 10	1.65 ± 0.5	30 ± 28.3	no AAK1 affinity	> 10					
CCn1cc(C#Cc2cccnc2)c2cc(-c3cc(OC)cc(OC)c3)cnc21 [Compound 7b]	3.92 ± 1.15	> 10	> 2	2							
COc1cc(OC)cc(-c2cnc3c(c2)c(C#Cc2cccnc2)cn3CC(C)C)c1 [Compound 7c]	> 10	> 10	> 10	10.7 ± 0.98							
COc1cc(OC)cc(-c2cnc3c(c2)c(C#Cc2cccnc2)cn3Cc2ccccc2)c1 [Compound 7d]	> 10	> 10	4.88 ± 0.28	> 50							
